PubChem BioAssay (NCI)
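96-well plates; 48 h exposure; 5 concentrations. Endpoints by linear interpolation between flanking doses. Not reached: highest tested concentration assigned. GI50: concentration for 50% inhibition of growth. TGI marks complete inhibition of growth.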

Key:
Assay in all cases: NCI tumour cell line growth inhibition, 48 h
786-0 renal = test system: 786-0 renal
A498 renal = test system: A498 renal
A549 NSCLC = test system: A549 NSCLC
ACHN renal = test system: ACHN renal
BT-549 breast = test system: BT-549 breast
CAKI-1 renal = test system: CAKI-1 renal
CCRF-CEM leukemia = test system: CCRF-CEM leukemia
COLO 205 colon = test system: COLO 205 colon
DU-145 prostate = test system: DU-145 prostate
EKVX NSCLC = test system: EKVX NSCLC
HCC-2998 colon = test system: HCC-2998 colon
HCT-116 colon = test system: HCT-116 colon
HCT-15 colon = test system: HCT-15 colon
HL-60(TB) leukemia = test system: HL-60(TB) leukemia
HOP-62 NSCLC = test system: HOP-62 NSCLC
HOP-92 NSCLC = test system: HOP-92 NSCLC
HS 578T breast = test system: HS 578T breast
HT29 colon = test system: HT29 colon
IGROV1 ovarian = test system: IGROV1 ovarian
K-562 leukemia = test system: K-562 leukemia
KM12 colon = test system: KM12 colon
LOX IMVI melanoma = test system: LOX IMVI melanoma
M14 melanoma = test system: M14 melanoma
MALME-3M melanoma = test system: MALME-3M melanoma
MCF7 breast = test system: MCF7 breast
MDA-MB-231 breast = test system: MDA-MB-231 breast
MDA-MB-435 = test system: MDA-MB-435
MOLT-4 leukemia = test system: MOLT-4 leukemia
NCI-H226 lung = test system: NCI-H226 lung
NCI-H23 lung = test system: NCI-H23 lung
NCI-H460 lung = test system: NCI-H460 lung
NCI-H522 lung = test system: NCI-H522 lung
NCI/ADR-RES ovarian = test system: NCI/ADR-RES ovarian
OVCAR-3 ovarian = test system: OVCAR-3 ovarian
OVCAR-4 ovarian = test system: OVCAR-4 ovarian
OVCAR-5 ovarian = test system: OVCAR-5 ovarian
OVCAR-8 ovarian = test system: OVCAR-8 ovarian
PC-3 prostate = test system: PC-3 prostate
RPMI-8226 leukemia = test system: RPMI-8226 leukemia
RXF 393 renal = test system: RXF 393 renal
SF-268 CNS = test system: SF-268 CNS
SF-295 CNS = test system: SF-295 CNS
SF-539 CNS = test system: SF-539 CNS
SK-MEL-2 melanoma = test system: SK-MEL-2 melanoma
SK-MEL-5 melanoma = test system: SK-MEL-5 melanoma
SK-OV-3 ovarian = test system: SK-OV-3 ovarian
SN12C renal = test system: SN12C renal
SNB-19 CNS = test system: SNB-19 CNS
SNB-75 CNS = test system: SNB-75 CNS
SR leukemia = test system: SR leukemia
SW-620 colon = test system: SW-620 colon
T-47D breast = test system: T-47D breast
TK-10 renal = test system: TK-10 renal
U251 CNS = test system: U251 CNS
UACC-257 melanoma = test system: UACC-257 melanoma
UACC-62 melanoma = test system: UACC-62 melanoma
UO-31 renal = test system: UO-31 renal

With `COc1cc(-c2nccn2-c2ccc3ccccc3c2)cc(OC)c1OC` the GI50 (786-0 renal) was 56.4 nM, the TGI (786-0 renal) was 12.5 µM and the GI50 (A498 renal) was 77.8 nM. For the same compound, the TGI (A498 renal) was 1360 nM, the GI50 (A549 NSCLC) was 740 nM and the TGI (A549 NSCLC) was over 65.5 µM. It also gave a GI50 (ACHN renal) of 2590 nM, a TGI (ACHN renal) of 49.6 µM and a GI50 (BT-549 breast) of 99.5 nM. The TGI (BT-549 breast) was 15.6 µM, the GI50 (CAKI-1 renal) was under 26.8 nM and the TGI (CAKI-1 renal) was 47 µM. It also gave a GI50 (CCRF-CEM leukemia) of 48 nM, a TGI (CCRF-CEM leukemia) of 32.5 µM and a GI50 (COLO 205 colon) of 40.2 nM. The TGI (COLO 205 colon) was 2440 nM, the GI50 (DU-145 prostate) was 84.4 nM and the TGI (DU-145 prostate) was over 32.3 µM. It also gave a GI50 (EKVX NSCLC) of 379 nM, a TGI (EKVX NSCLC) of 48.1 µM and a GI50 (HCC-2998 colon) of under 36.7 nM. The TGI (HCC-2998 colon) was 1660 nM, the GI50 (HCT-116 colon) was 40 nM and the TGI (HCT-116 colon) was 11.7 µM. It also gave a GI50 (HCT-15 colon) of under 22.6 nM, a TGI (HCT-15 colon) of 12.6 µM and a GI50 (HL-60(TB) leukemia) of under 17.6 nM. It also gave a TGI (HL-60(TB) leukemia) of 1330 nM, a GI50 (HOP-62 NSCLC) of 67.5 nM and a TGI (HOP-62 NSCLC) of 18.3 µM. For the same compound, the GI50 (HOP-92 NSCLC) was 10.1 µM, the TGI (HOP-92 NSCLC) was 31.4 µM and the GI50 (HS 578T breast) was 66.8 nM. It also gave a TGI (HS 578T breast) of 71.5 µM, a GI50 (HT29 colon) of under 19.6 nM and a TGI (HT29 colon) of 14 µM. It also gave a GI50 (IGROV1 ovarian) of 1110 nM, a TGI (IGROV1 ovarian) of over 41.2 µM and a GI50 (K-562 leukemia) of under 15.6 nM. For the same compound, the TGI (K-562 leukemia) was over 32.3 µM, the GI50 (KM12 colon) was under 16.6 nM and the TGI (KM12 colon) was 18.2 µM. The GI50 (LOX IMVI melanoma) was 1530 nM, the TGI (LOX IMVI melanoma) was 19 µM and the GI50 (M14 melanoma) was 61.3 nM. The TGI (M14 melanoma) was 12.7 µM, the GI50 (MALME-3M melanoma) was 16 µM and the TGI (MALME-3M melanoma) was 47.6 µM. The GI50 (MCF7 breast) was under 13 nM, the TGI (MCF7 breast) was 15.8 µM and the GI50 (MDA-MB-231 breast) was 333 nM. It also gave a TGI (MDA-MB-231 breast) of 22.6 µM, a TGI (MDA-MB-435) of 51.1 nM and a GI50 (MOLT-4 leukemia) of 70.8 nM. For the same compound, the TGI (MOLT-4 leukemia) was 17 µM, the GI50 (NCI-H226 lung) was 206 nM and the TGI (NCI-H226 lung) was 20.3 µM. The GI50 (NCI-H23 lung) was 78.9 nM, the TGI (NCI-H23 lung) was 5.53 µM and the GI50 (NCI-H460 lung) was under 21.5 nM. It also gave a TGI (NCI-H460 lung) of 11.7 µM, a GI50 (NCI-H522 lung) of under 21.8 nM and a TGI (NCI-H522 lung) of 20.4 µM. The TGI (NCI/ADR-RES ovarian) was 27.3 nM, the GI50 (OVCAR-3 ovarian) was under 17.6 nM and the TGI (OVCAR-3 ovarian) was 1610 nM. For the same compound, the GI50 (OVCAR-4 ovarian) was 2040 nM, the TGI (OVCAR-4 ovarian) was 44.6 µM and the GI50 (OVCAR-5 ovarian) was 469 nM. The TGI (OVCAR-5 ovarian) was 24.2 µM, the GI50 (OVCAR-8 ovarian) was 489 nM and the TGI (OVCAR-8 ovarian) was over 88 µM. It also gave a GI50 (PC-3 prostate) of 45.3 nM, a TGI (PC-3 prostate) of over 100 µM and a GI50 (RPMI-8226 leukemia) of 190 nM. It also gave a TGI (RPMI-8226 leukemia) of 17.5 µM, a GI50 (RXF 393 renal) of 254 nM and a TGI (RXF 393 renal) of 28.7 µM. The GI50 (SF-268 CNS) was 335 nM, the TGI (SF-268 CNS) was 18.9 µM and the GI50 (SF-295 CNS) was under 15.9 nM. For the same compound, the TGI (SF-295 CNS) was 15.5 µM, the GI50 (SF-539 CNS) was 46.6 nM and the TGI (SF-539 CNS) was 625 nM. For the same compound, the GI50 (SK-MEL-2 melanoma) was 6.2 µM, the TGI (SK-MEL-2 melanoma) was over 50.3 µM and the GI50 (SK-MEL-5 melanoma) was under 19.5 nM. The TGI (SK-MEL-5 melanoma) was 4.45 µM, the GI50 (SK-OV-3 ovarian) was 990 nM and the TGI (SK-OV-3 ovarian) was 74 µM. For the same compound, the GI50 (SN12C renal) was 666 nM, the TGI (SN12C renal) was 22.6 µM and the GI50 (SNB-19 CNS) was 98.5 nM. For the same compound, the TGI (SNB-19 CNS) was 24.3 µM, the GI50 (SNB-75 CNS) was 60.5 nM and the TGI (SNB-75 CNS) was 24.8 µM. For the same compound, the GI50 (SR leukemia) was under 14.7 nM, the TGI (SR leukemia) was 7.06 µM and the GI50 (SW-620 colon) was 24 nM. For the same compound, the TGI (SW-620 colon) was 25.2 µM, the GI50 (T-47D breast) was 17.7 µM and the TGI (T-47D breast) was 94.8 µM. For the same compound, the GI50 (TK-10 renal) was 2940 nM, the TGI (TK-10 renal) was over 87.6 µM and the GI50 (U251 CNS) was 54.7 nM. It also gave a TGI (U251 CNS) of 16.7 µM, a GI50 (UACC-257 melanoma) of 12.9 µM and a TGI (UACC-257 melanoma) of 41.3 µM. It also gave a GI50 (UACC-62 melanoma) of under 17.7 nM, a TGI (UACC-62 melanoma) of 14.5 µM and a GI50 (UO-31 renal) of 1650 nM. For the same compound, the TGI (UO-31 renal) was over 62.6 µM.
